# Experimental data published in US9855283B2, “Composition comprising GPCR19 agonist as an active ingredient for preventing or treating allergic dermatitis” (SHAPERON Inc., priority 2013, dated 2018).
# Columns and labels:
# [1] = system: neutrophils; assay: Neutrophils infiltrated into the dermis (specific esterase, Naphthol AS-D chloroacetate); type: in vivo, Balb/C mice; details: compared with vehicle-treated group
# Experimental: (§1) In order to test efficacy of the sodium taurodeoxycholate (HY2191) composition on atopic dermatitis, dermatitis lesion was induced at the shaved-back of 6 weeks old male Balb/C mice. DNCB (2,4-dinitro-1-chlorobenzene, Sigma) was used as a hapten.
# (§2) Five mice for each group were tested. The amount of IgE in blood of mice was measured to evaluate an inhibitory effect of a medication on IgE production. To make skin lesion of atopic dermatitis, 100 μL of a DNCB solution (2.5% in acetone) was applied on the shaved-back of the mouse at day 1. One hundred μL of DNCB (1% in acetone) was applied at day 4 and 100 μL of 0.2% DNCB in acetone at day 10.
# (§3) From the day 7 to the day 14, 100 μL of the composition of 2.5% or 5% sodium taurodeoxycholate (HY2191) of example 1 was applied on the back of mice twice a day. Maxidex ointment (Dexamethasone, Alcon Korea) and Protopic ointment (Tacrolimus, Astellas Pharma Korea) were used for positive control groups and only a vehicle was used for a negative control group.
# (§4) The number of mast cells, eosinophils, and neutrophils infiltrated into the dermis were counted after staining skins with toluidine blue, congo red, or specific esterase (Naphthol AS-D chloroacetate), respectively. […] On the other hand, the number of neutrophils critical for acute inflammation was increased in the group of atopic mice treated with Protopic.
# [2] = system: IL-4; assay: Serum TH2 cytokine IL-4 by ELISA in DNCB-induced atopic dermatitis mice; type: in vivo, Balb/C mice; details: 5% composition; better than mice treated with Protopic or Maxidex (p<0.05)
# [3] = system: eosinophils; assay: Eosinophils infiltrated into the dermis (congo red); type: in vivo, Balb/C mice; details: compared with vehicle-treated group (p<0.05)
# Experimental: as §1, §2, §3, §4
# [4] = system: dorsal skin of atopic mice; assay: Histopathology (H&E) of dorsal skin: thickness of epidermis and dermis; type: in vivo, Balb/C mice; details: for thickness of the epidermis: DNCB only 320.2±21.6 μm, sham 26.1±1.0 μm; for thickness of dermis: DNCB only 930.2±34.2 μm, sham 384.7±11.4 μm
# Experimental: In order to test efficacy of the sodium taurodeoxycholate (HY2191) composition on atopic dermatitis, dermatitis lesion was induced at the shaved-back of 6 weeks old male Balb/C mice. DNCB (2,4-dinitro-1-chlorobenzene, Sigma) was used as a hapten. Five mice for each group were tested. The amount of IgE in blood of mice was measured to evaluate an inhibitory effect of a medication on IgE production. To make skin lesion of atopic dermatitis, 100 μL of a DNCB solution (2.5% in acetone) was applied on the shaved-back of the mouse at day 1. One hundred μL of DNCB (1% in acetone) was applied at day 4 and 100 μL of 0.2% DNCB in acetone at day 10. From the day 7 to the day 14, 100 μL of the composition of 2.5% or 5% sodium taurodeoxycholate (HY2191) of example 1 was applied on the back of mice twice a day. Maxidex ointment (Dexamethasone, Alcon Korea) and Protopic ointment (Tacrolimus, Astellas Pharma Korea) were used for positive control groups and only a vehicle was used for a negative control group. The dorsal skin flaps of the mice were fixed in a 10% formalin solution for 24 hours and then washed with distilled water. The paraffin blocks of the fixed skins were prepared and sectioned (thickness of 7 μm). They were stained with hematoxylin and eosin (H&E) (FIG. 5A). The thickness of epidermis and the dermis of mice treated with DNCB only were 320.2±21.6 μm and 930.2±34.2 μm, respectively. […] The thickness of dermis from the group of atopic mice treated with 2.5% sodium taurodeoxycholate (HY2191), 5% sodium taurodeoxycholate (HY2191), or Protopic were 616.0±21.1 μm, 521.7±18.3 μm, and 572.6±20.2 μm, respectively.
# [5] = system: IL-2; assay: Serum TH1 cytokine IL-2 by ELISA in DNCB-induced atopic dermatitis mice; type: in vivo, Balb/C mice; details: 5% composition; far better than mice treated with Protopic or Maxidex (p<0.05)
# [6] = system: mast cells; assay: Mast cells infiltrated into the dermis (toluidine blue); type: in vivo, Balb/C mice; details: compared with vehicle-treated group (p<0.05)
# Experimental: as §1, §2, §3, §4
# [7] = system: serum IgE; assay: Serum IgE level by ELISA in DNCB-induced atopic dermatitis mice; type: in vivo, Balb/C mice; details: FIG. 3
# Experimental: as §1, §2, §3
# After the clinical evaluation described at Experimental Example 2, a mixture containing 0.4% of Zoletil (Virbac, Milano Italy) and 0.04% of Rompun (Bayer Korea) in normal saline was injected i.p. to anesthetize each mouse. Blood samples were collected from the heart of the mice. The serum was prepared to measure the concentration of IgE using enzyme immunoassay (Mouse IgE ELISA, BD). […]
# [8] = system: atopic dermatitis lesions on shaved-back of Balb/C mice; assay: Clinical score of DNCB-induced atopic dermatitis lesions (five items, worst score 15); type: in vivo; details: day 15
# Experimental: as §1
# as §2, with “10. […]” for “10.”
# In order to evaluate the efficacy of sodium taurodeoxycholate on atopic dermatitis, atopic dermatitis was induced on shaved-back of Balb/C mice with DNCB according to experimental example 1 and clinical scores of atopic dermatitis lesions incurred on the back of animal model was evaluated on day 15. To evaluate clinical scores at day 15, (1) the frequency of scratching for 2 minutes, (2) the severity of erythema/hemorrhage, (3) edema, (4) excoriation/erosion, and (5) scaling/dryness were graded and were scored from 0 (none) to 3 (severe), making the worst score 15 for the most severe subject. The every subject in every group was evaluated by three people in a double-blind method. The mean clinical score of individual mouse was calculated.
# [9] = system: IFN-γ; assay: Serum TH1 cytokine IFN-γ by ELISA in DNCB-induced atopic dermatitis mice; type: in vivo, Balb/C mice; details: 5% composition; far better than mice treated with Protopic or Maxidex (p<0.05)
smiles,measurement,setting,value
"C[C@H](CCC(=O)NCCS(=O)(=O)O)[C@H]1CC[C@H]2[C@@H]3CC[C@@H]4C[C@H](O)CC[C@]4(C)[C@H]3C[C@H](O)[C@]12C [sodium taurodeoxycholate (HY2191), sodium taurodeoxycholate]",number of neutrophils in the skin of atopic mice,[1],significantly decreased
same,level of IL-4 (TH2 cytokine) in serum,[2],decreased significantly
same,number of eosinophils in the skin of atopic mice,[3],significantly decreased
same,thickness of the epidermis,[4]; 2.5% composition,105.3±7.0 μm
same,thickness of dermis,[4]; 2.5% composition,616.0±21.1 μm
same,thickness of the epidermis,[4]; 5% composition,75.0±8.4 μm
same,thickness of dermis,[4]; 5% composition,521.7±18.3 μm
same,level of IL-2 (TH1 cytokine) in serum,[5],increased significantly
same,number of mast cells in the skin of atopic mice,[6],significantly decreased
same,inhibiting serum IgE production,[7]; 2.5% or 5% composition,effective in inhibiting serum IgE production
same,serum IgE levels,[7]; compared with positive control groups (Maxidex ointment or Protopic ointment),significantly lower
same,clinical scores,"[8]; 5% composition, compared to positive control group that received Maxidex ointment or Protopic ointment",better clinical scores
same,clinical score,"[8]; compared to negative control group treated with vehicle only, topical twice a day, day 7 to 14",better clinical score
same,level of IFN-γ (TH1 cytokine) in serum,[9],increased significantly
